Results as given in ChEMBL document CHEMBL3507680, “University of Dundee, Gates Library screen for HepG2 cell viability”.

assay: Human HepG2 cell viability assay in 384 well format; type: toxicity, cell-based; set-up: dose 125 nL, time 70.5 hour; cytotoxicity at 70.5 h: concentration not given beside the values; details: HepG2 cells, read-out: Inhibition

| Compound | cytotoxicity at 70.5 h [%] |
| --- | --- |
| CS(=O)(=O)c1cncnc1C1CCCN(C(=O)Nc2ccccc2F)C1 (stereo not given) | -11.6 |
| O=C(Nc1ccc(F)cc1)N1CCC(CO)(Nc2ccccc2)CC1 | 0.526 |
| CN(C(=O)CNC(=O)CC(C)(C)C)C1CCN(c2ccccn2)CC1 | -6.78 |
| COCCn1cnc(-c2nc(C(=O)N3CCOCC3)c3ccccn23)c1 | 5.18 |
| CN(CC1(C)COC1)C(=O)c1cc(-c2ccn(C)n2)nc2ccccc12 | 14.1 |
| CCCC(=O)N(CCCN1CCOCC1)c1nc2c(F)cccc2s1 | -1.9 |
| NC(=O)CN1CCCCC1c1nc(N)ncc1-c1cccc(F)c1 (stereo not given) | -4.69 |
| CC1CCN(c2nc3c(cnn3-c3ccccc3)c(=O)[nH]2)CC1 | -5.83 |
| Cc1cccc(C(C(=O)NC(C)(C)CN2CCOCC2)N(C)C)c1 (stereo not given) | 25.2 |
| CC[C@H]1COCCN1C(=O)c1cnc(C(C)C)nc1C | 16.6 |
| CCn1ccc(NC(=O)CN2C(=O)CC(C)(C)c3ccccc32)n1 | -8.59 |
| O=C1COc2ccc(C(=O)N3CCCC(n4ccnc4)C3)cc2N1 (stereo not given) | 2.98 |
| CCc1nnc2n1CCN(Cc1ncc(-c3ccc(Cl)cc3)o1)C2 | -7.58 |
| Cc1cnc(C(=O)N2CCCCC2c2nc(C)cs2)cn1 (stereo not given) | -0.288 |
| Cc1cc(C(=O)N2CCCC(n3cncn3)C2)nn1C (stereo not given) | -10.8 |
| Cc1ccc(-c2ncc(CNc3cnccc3CO)s2)cc1 | 3.65 |
| OCCN(Cc1ccccc1)Cc1nc(-c2ccc3c(c2)OCO3)no1 | -9.5 |
| CC(C)c1nc(C2CCCN2CCNS(C)(=O)=O)no1 (stereo not given) | -19.2 |
| O=C(NCCN1CCC(c2cccs2)CC1)c1ccc(F)cc1Cl | -3.13 |
| CCc1ncc(C(=O)N2CCCCC2Cn2cccn2)s1 (stereo not given) | -7.11 |
| CNC(=O)C1CCN(Cc2nc(-c3ccc(SC)cc3)oc2C)C1 (stereo not given) | -6.93 |
| CN(C)c1ncnc2c1CCN(CC1CCOC1)CC2 (stereo not given) | -14.4 |
| CC(C)(C)c1cn2nc(N3CCC[C@@H]3CO)sc2n1 | -17.4 |

| Compound | cytotoxicity at 70.5 h [%] |
| --- | --- |
| Cc1[nH]c2ccccc2c1-c1ccnc(N[C@H](CO)CC(C)C)n1 | -2.73 |
| Cc1occc1C(=O)NCCOc1ccc(C(F)(F)F)cn1 | 18.8 |
| NC(=O)CN1CCC(NC(=O)N2CCCC2c2ccncc2)CC1 (stereo not given) | -11.7 |
| CN1CCC(Cc2cccc(-c3cc(F)ccc3C(=O)O)n2)CC1 | -4.18 |
| CN(Cc1nccn1C)C1CCCN(CCCc2ccccc2)C1 (stereo not given) | -6.62 |
| O=C(CNC(=O)C1CC1)Nc1c(F)cccc1Oc1ccccc1 | -3.31 |
| CCn1ccc(NS(=O)(=O)c2cccc(CSC)c2)n1 | 3.12 |
| CC(=O)NCc1ccc(S(=O)(=O)NC(=O)c2ccc3c(c2)CCO3)s1 | -2.05 |
| O=C(c1cc(F)cc(Cl)c1)N1CCN(CCO)[C@@H]2CS(=O)(=O)C[C@@H]21 | -0.458 |
| CC(C)c1ccc(CCC(=O)N2CCOCC2c2ncon2)cc1 (stereo not given) | -5.22 |
| O=C(CN1CCCCC1)Nc1cc(C(F)(F)F)ccc1-n1cccc1 | -9.88 |
| Cc1cnn(C2CN(c3ncnc4[nH]ccc34)C2)c1 | -3.84 |
| Cc1cc(CN2CC[C@H]3C[C@@H](c4nccs4)O[C@@H]3C2)no1 | -2.76 |
| CCC1=N[C@@]2(CC[C@@H]3CN(Cc4ccc(Cl)cc4)C[C@@H]32)C(=O)N1 | -3.73 |
| COCCNC(=O)c1nnn(Cc2ccccc2)c1OC | -2.5 |
| O=C(Cc1ccc(F)cc1)NCC1CCN(Cc2ccsc2)CC1 | -3.3 |
| Cc1cccc(NC(=O)N2CCC3(CCC(C(=O)N(C)C)O3)CC2)c1 (stereo not given) | -11.4 |
| Cc1cnn(C2CN(c3nc(-c4ccncc4)nc4c3CCC4)C2)c1 | -6.05 |
| CNC(=O)CCc1cc(C)nc(C2CCN(c3ccccc3)CC2)c1 | -3.63 |
| CCn1nccc1CN(C)c1nc(N)nc2c1nc(C)n2C | -3.81 |
| COc1ncccc1NC(=O)N1CCC(CNC(C)=O)CC1 | -7.14 |
| COc1ccccc1OCCCN1CC=C(c2cnn(C)c2)CC1 | -2.62 |
